What was measured:
Assay type in all cases: cell-based
K562 cells = assay: Cell growth inhibitory activity assay (CellTiter-Glo), K562 cells; settings: Homo sapiens, 72 h, CTG cell viability
Outline: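 K562 cells in logarithmic growth were counted, diluted and plated in 96-well plates, with medium-only blanks and a separate T0 plate read by CTG the following day. After overnight incubation, graded compound concentrations were added for 72 h, with 0.5% DMSO wells as growth controls. Luminescence was read on a Biotek cytation3.0, and IC50 came from nonlinear fitting in GraphPad Prism 7.0.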

Ba/F3 BCR-ABL1 WT = molecular target: T1, Ba/F3 BCR-ABL1 WT (Homo sapiens, UniProt P00519+P11274); assay: Cell growth inhibitory activity assay (CellTiter-Glo), Ba/F3 BCR-ABL1 WT cells; settings: 72 h, CTG cell viability
T1 construct: BCR (N-terminal fusion partner of the oncoprotein); expressed in transfected cells; host or cells: Ba/F3 (lentiviral transduction, monoclonal line)
Outline: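 Ba/F3 parental cells or Ba/F3 lines lentivirally transduced with WT or mutant BCR-ABL1, seeded overnight then exposed to serially diluted compound 72 h at 37 °C, 5% CO2. Viability by CellTiter-Glo ATP luminescence with a T0 plate; 0.5% DMSO controls; IC50 from four-parameter nonlinear fit.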

Ba/F3 BCR-ABL1 T315I = molecular target: T2, Ba/F3 BCR-ABL1 T315I (Homo sapiens, UniProt P00519+P11274, T315I); assay: Cell growth inhibitory activity assay (CellTiter-Glo), Ba/F3 BCR-ABL1 T315I cells; settings: 72 h, CTG cell viability
T2 construct: BCR (N-terminal fusion partner of the oncoprotein); expressed in transfected cells; host or cells: Ba/F3 (lentiviral transduction, monoclonal line)
Outline: (§1)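 Luminescent ATP read-out (CellTiter-Glo) after 72 h compound exposure at 37 °C, 5% CO2. Cells: monoclonal Ba/F3 lentivirally engineered with mutant BCR-ABL1, or parental Ba/F3. A T0 plate read the day after seeding; 0.5% DMSO wells as uninhibited growth control. IC50 via variable-slope logistic fit of % inhibition.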

Ba/F3 parental cells = assay: Cell growth inhibitory activity assay (CellTiter-Glo), Ba/F3 parental cells; settings: Mus musculus, BaF3, 72 h, CTG cell viability, read-out: IC50 Ba/F3 BCR-ABL1 Parental
Outline: as §1

Row | SMILES | IC50 (K562 cells) [nM] | IC50 (Ba/F3 BCR-ABL1 WT) [nM] | IC50 (Ba/F3 BCR-ABL1 T315I) [nM] | IC50 (Ba/F3 parental cells) [nM]
1 | COc1ccc(-c2ccnc(-n3cc4c(n3)-c3cc(-c5cc(C(=O)Nc6ccc(OC(F)(F)Cl)cc6)cc6nc7n(c56)[C@H](C)COC7)cnc3C4)n2)cc1F [T-91-B, (R)-N-(4-(chlorodifluoromethoxy)phenyl)-6-(2-(4-(3-fluoro-4-methoxyphenyl)pyrimidin-2-yl)-2,4-dihydropyrazolo[3',4':3,4]cyclopenta[1,2-b]pyridin-7-yl)-4-methyl-3,4-dihydro-1H-benzo[4,5]imidazo[2,1-c][1,4]oxazine-8-carboxamide] | ≤ 5 | ≤ 5 | ≤ 5 | > 1000
2 | C[C@@H]1COCc2nc3cc(C(=O)Nc4ccc(OC(F)(F)Cl)cc4)cc(-c4cnc5c(c4)-c4nn(-c6nccc(-c7ccccc7F)n6)cc4C5)c3n21 [T-92, (R)-N-(4-(chlorodifluoromethoxy)phenyl)-6-(2-(4-(2-fluorophenyl)pyrimidin-2-yl)-2,4-dihydropyrazolo[3',4':3,4]cyclopenta[1,2-b]pyridin-7-yl)-4-methyl-3,4-dihydro-1H-benzo[4,5]imidazo[2,1-c][1,4]oxazine-8-carboxamide] | ≤ 5 | ≤ 5 | ≤ 5 | > 1000
3 | COc1cccc(-c2ccnc(-n3cc4c(n3)-c3cc(-c5cc(C(=O)Nc6ccc(OC(F)(F)Cl)cc6)cc6nc7n(c56)[C@H](C)COC7)cnc3C4)n2)c1F [T-93, (R)-N-(4-(chlorodifluoromethoxy)phenyl)-6-(2-(4-(2-fluoro-3-methoxyphenyl)pyrimidin-2-yl)-2,4-dihydropyrazolo[3',4':3,4]cyclopenta[1,2-b]pyridin-7-yl)-4-methyl-3,4-dihydro-1H-benzo[4,5]imidazo[2,1-c][1,4]oxazine-8-carboxamide] | ≤ 5 | ≤ 5 | ≤ 5 | > 1000
4 | C[C@@H]1COCc2nc3cc(C(=O)Nc4ccc(OC(F)(F)Cl)cc4)cc(-c4cnc5c(c4)-c4nn(-c6nccc(-c7ccc(F)nc7)n6)cc4C5)c3n21 [T-94, (R)-N-(4-(chlorodifluoromethoxy)phenyl)-6-(2-(4-(6-fluoropyridin-3-yl)pyrimidin-2-yl)-2,4-dihydropyrazolo[3',4':3,4]cyclopenta[1,2-b]pyridin-7-yl)-4-methyl-3,4-dihydro-1H-benzo[4,5]imidazo[2,1-c][1,4]oxazine-8-carboxamide] | ≤ 5 | ≤ 5 | ≤ 5 | > 1000
5 | C[C@@H]1COCc2nc3cc(C(=O)Nc4ccc(OC(F)(F)Cl)cc4)cc(-c4cnc5c(c4)-c4nn(-c6nccc(-c7cccnc7F)n6)cc4C5)c3n21 [T-95, (R)-N-(4-(chlorodifluoromethoxy)phenyl)-6-(2-(4-(2-fluoropyridin-3-yl)pyrimidin-2-yl)-2,4-dihydropyrazolo[3',4':3,4]cyclopenta[1,2-b]pyridin-7-yl)-4-methyl-3,4-dihydro-1H-benzo[4,5]imidazo[2,1-c][1,4]oxazine-8-carboxamide] | ≤ 5 | ≤ 5 | ≤ 5 | > 1000
6 | C[C@@H]1COCc2nc3cc(C(=O)Nc4ccc(OC(F)(F)Cl)cc4)cc(-c4cnc5c(c4)-c4nn(-c6nccc(-c7cncc(F)c7)n6)cc4C5)c3n21 [T-96, (R)-N-(4-(chlorodifluoromethoxy)phenyl)-6-(2-(4-(5-fluoropyridin-3-yl)pyrimidin-2-yl)-2,4-dihydropyrazolo[3',4':3,4]cyclopenta[1,2-b]pyridin-7-yl)-4-methyl-3,4-dihydro-1H-benzo[4,5]imidazo[2,1-c][1,4]oxazine-8-carboxamide] | ≤ 5 | ≤ 5 | ≤ 5 | > 1000
7 | COc1ncc(-c2ccnc(-n3cc4c(n3)-c3cc(-c5cc(C(=O)Nc6ccc(OC(F)(F)Cl)cc6)cc6nc7n(c56)[C@H](C)COC7)cnc3C4)n2)cc1F [T-97, (R)-N-(4-(chlorodifluoromethoxy)phenyl)-6-(2-(4-(5-fluoro-6-methoxyoyridin-3-yl)pyrimidin-2-yl)-2,4-dihydropyrazolo[3',4':3,4]cyclopenta[1,2-b]pyridin-7-yl)-4-methyl-3,4-dihydro-1H-benzo[4,5]imidazo[2,1-c][1,4]oxazine-8-carboxamide] | ≤ 5 | ≤ 5 | ≤ 5 | > 1000
8 | C[C@@H]1COCc2nc3cc(C(=O)Nc4ccc(OC(F)(F)Cl)cc4)cc(-c4cnc5c(c4)-c4nn(-c6nccc(-c7cncc(C#N)c7)n6)cc4C5)c3n21 [T-98, (R)-N-(4-(chlorodifluoromethoxy)phenyl)-6-(2-(4-(5-cyanopyridin-3-yl)pyrimidin-2-yl)-2,4-dihydropyrazolo[3',4':3,4]cyclopenta[1,2-b]pyridin-7-yl)-4-methyl-3,4-dihydro-1H-benzo[4,5]imidazo[2,1-c][1,4]oxazine-8-carboxamide] | ≤ 5 | ≤ 5 | ≤ 5 | > 1000
9 | C[C@@H]1COCc2nc3cc(C(=O)Nc4ccc(OC(F)(F)Cl)cc4)cc(-c4cnc5c(c4)-c4nn(-c6nccc(-c7ccc(C#N)nc7)n6)cc4C5)c3n21 [T-99, (R)-N-(4-(chlorodifluoromethoxy)phenyl)-6-(2-(4-(6-cyanopyridin-3-yl)pyrimidin-2-yl)-2,4-dihydropyrazolo[3',4':3,4]cyclopenta[1,2-b]pyridin-7-yl)-4-methyl-3,4-dihydro-1H-benzo[4,5]imidazo[2,1-c][1,4]oxazine-8-carboxamide] | ≤ 5 | ≤ 5 | ≤ 5 | > 1000
10 | C[C@@H]1COCc2nc3cc(C(=O)Nc4ccc(OC(F)(F)Cl)cc4)cc(-c4cnc5c(c4)-c4nn(-c6nccc(-c7cncnc7)n6)cc4C5)c3n21 [T-100, (R)-6-(2-([4,5'-bipyrimidin]-2-yl)-2,4-dihydropyrazolo[3',4':3,4]cyclopenta[1,2-b]pyridin-7-yl)-N-(4-(chlorodifluoromethoxy)phenyl)-4-methyl-3,4-dihydro-1H-benzo[4,5]imidazo[2,1-c][1,4]oxazine-8-carboxamide] | ≤ 5 | ≤ 5 | ≤ 5 | > 1000
11 | CC(C)c1cnc(-n2cc3c(n2)-c2cc(-c4cc(C(=O)Nc5ccc(OC(F)(F)Cl)cc5)cc5nc6n(c45)[C@H](C)COC6)cnc2C3)nc1 [T-101, (R)-N-(4-(chlorodifluoromethoxy)phenyl)-6-(2-(5-isopropyloyrimidin-2-yl)-2,4-dihydropyrazolo[3',4':3,4]cyclooenta[1,2-b]pyridin-7-yl)-4-methyl-3,4-dihydro-1H-benzo[4,5]imidazo[2,1-c][1,4]oxazine-8-carboxamide] | ≤ 5 | ≤ 5 | ≤ 5 | > 1000
12 | C[C@@H]1COCc2nc3cc(C(=O)Nc4ccc(OC(F)(F)Cl)cc4)cc(-c4cnc5c(c4)-c4nn(-c6nccn6C)cc4C5)c3n21 [T-102, (R)-N-(4-(chlorodifluoromethoxy)phenyl)-4-methyl-6-(2-(1-methyl-1H-imidazol-2-yl)-2,4-dihydropyrazolo[3',4':3,4]cyclopenta[1,2-b]pyridin-7-yl)-3,4-dihydro-1H-benzo[4,5]imidazo[2,1-c][1,4]oxazine-8-carboxamide] | ≤ 5 | ≤ 5 | ≤ 5 | > 1000
13 | Cc1ccc(-n2cc3c(n2)-c2cc(-c4cc(C(=O)Nc5ccc(OC(F)(F)Cl)cc5)cc5nc6n(c45)[C@H](C)COC6)cnc2C3)nn1 [T-104-A, (R)-N-(4-(chlorodifluoromethoxy)phenyl)-4-methyl-6-(2-(6-methylpyridazin-3-yl)-2,4-dihydropyrazolo[3',4':3,4]cyclopenta[1,2-b]pyridin-7-yl)-3,4-dihydro-1H-benzo[4,5]imidazo[2,1-c][1,4]oxazine-8-carboxamide] | ≤ 5 | ≤ 5 | 5 to 50 | > 1000
14 | Cc1ccc(-n2ncc3c2-c2cc(-c4cc(C(=O)Nc5ccc(OC(F)(F)Cl)cc5)cc5nc6n(c45)[C@H](C)COC6)cnc2C3)nn1 [T-104-B, (R)-N-(4-(chlorodifluoromethoxy)phenyl)-4-methyl-6-(1-(6-methylpyridazin-3-yl)-1,4-dihydropyrazolo[3',4':3,4]cyclopenta[1,2-b]pyridin-7-yl)-3,4-dihydro-1H-benzo[4,5]imidazo[2,1-c][1,4]oxazine-8-carboxamide] | ≤ 5 | ≤ 5 | 5 to 50 | > 1000
15 | C[C@@H]1COCc2nc3cc(C(=O)Nc4ccc(OC(F)(F)Cl)cc4)cc(-c4ccc5c(c4)-c4n[nH]cc4C5)c3n21 [T-108, (R)-N-(4-(chlorodifluoromethoxy)phenyl)-6-(2,4-dihydroindeno[1,2-c]pyrazol-7-yl)-4-methyl-3,4-dihydro-1H-benzo[4,5]imidazo[2,1-c][1,4]xxazine-8-carboxamide] | ≤ 5 | ≤ 5 | > 1000 | > 1000
16 | C[C@@H]1COCc2nc3cc(C(=O)Nc4ccc(OC(F)(F)Cl)cc4)cc(-c4ccc5c(c4)-c4nn(-c6ncccn6)cc4C5)c3n21 [T-109] | ≤ 5 | ≤ 5 | ≤ 5 | > 1000

From patent EP4768484A1, “HETEROCYCLIC FUSED RING COMPOUND, AND COMPOSITION AND USE THEREOF” (Shenzhen TargetRx, Inc., priority 2023, dated 2025)
